Data as given in patent publication US7446199B2, “Compositions useful as inhibitors of protein kinases” (Vertex Pharmaceuticals Incorporated, priority 2003, dated 2008).
Several values for one entry are separate records, joined by “and”; a condition that tells them apart may be missing. Identical values can stand only once.

Key:
c-Met = c-Met (Homo sapiens, UniProt P08581); test: Ki determination for the inhibition of c-Met, coupled enzyme system; format: biochemical; conditions: 200 μM ATP, 10 μM polyGluTyr, 80 nM c-Met, 30° C.
Outline: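 Coupled pyruvate kinase/lactate dehydrogenase NADH assay with 80 nM c-Met, 200 μM ATP, 10 μM polyGluTyr in pH 7.5 HEPES, 1.5% DMSO at 30° C. Compound (0.006–12.5 μM final, 12-point) preincubated 10 min; ATP started reaction, rates read over 10 min; Ki derived from rate versus inhibitor concentration.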

GSK-3β, (AA 1-420) = GSK-3β, (AA 1-420) (Homo sapiens, UniProt P49841); test: GSK-3 inhibition assay, coupled enzyme system; format: biochemical; conditions: 20 μM ATP, 300 μM peptide, 20 nM GSK-3b, 30° C.; read-out: Ki values (GSK3)
Description: Compounds of the present invention were screened for their ability to inhibit GSK-3β, (AA 1-420) activity using a standard coupled enzyme system (Fox et al., Protein Sci. 1998, 7, 2249). Reactions were carried out in a solution containing 100 mM HEPES (pH 7.5), 10 mM MgCl2, 25 mM NaCl, 300 μM NADH, 1 mM DTT and 1.5% DMSO. Final substrate concentrations in the assay were 20 μM ATP (Sigma Chemicals, St Louis, Mo.) and 300 μM peptide (American Peptide, Sunnyvale, Calif.). Reactions were carried out at 30° C. and 20 nM GSK-3b. Final concentrations of the components of the coupled enzyme system were 2.5 mM phosphoenolpyruvate, 300 μM NADH, 30 μg/ml pyruvate kinase and 10 μg/ml lactate dehydrogenase.
An assay stock buffer solution was prepared containing all of the reagents listed above with the exception of ATP and the test compound of the present invention. The assay stock buffer solution (175 μl) was incubated in a 96 well plate with 5 μl of the test compound of the present invention at final concentrations spanning 0.002 μM to 30 μM at 30° C. for 10 min. Typically, a 12 point titration was conducted by preparing serial dilutions (from 10 mM compound stocks) with DMSO of the test compounds of the present invention in daughter plates. The reaction was initiated by the addition of 20 μl of ATP (final concentration 20 μM). Rates of reaction were obtained using a Molecular Devices Spectramax plate reader (Sunnyvale, Calif.) over 10 min at 30° C. The Ki values were determined from the rate data as a function of inhibitor concentration.

c-Met, sequence (P08581 25-1390): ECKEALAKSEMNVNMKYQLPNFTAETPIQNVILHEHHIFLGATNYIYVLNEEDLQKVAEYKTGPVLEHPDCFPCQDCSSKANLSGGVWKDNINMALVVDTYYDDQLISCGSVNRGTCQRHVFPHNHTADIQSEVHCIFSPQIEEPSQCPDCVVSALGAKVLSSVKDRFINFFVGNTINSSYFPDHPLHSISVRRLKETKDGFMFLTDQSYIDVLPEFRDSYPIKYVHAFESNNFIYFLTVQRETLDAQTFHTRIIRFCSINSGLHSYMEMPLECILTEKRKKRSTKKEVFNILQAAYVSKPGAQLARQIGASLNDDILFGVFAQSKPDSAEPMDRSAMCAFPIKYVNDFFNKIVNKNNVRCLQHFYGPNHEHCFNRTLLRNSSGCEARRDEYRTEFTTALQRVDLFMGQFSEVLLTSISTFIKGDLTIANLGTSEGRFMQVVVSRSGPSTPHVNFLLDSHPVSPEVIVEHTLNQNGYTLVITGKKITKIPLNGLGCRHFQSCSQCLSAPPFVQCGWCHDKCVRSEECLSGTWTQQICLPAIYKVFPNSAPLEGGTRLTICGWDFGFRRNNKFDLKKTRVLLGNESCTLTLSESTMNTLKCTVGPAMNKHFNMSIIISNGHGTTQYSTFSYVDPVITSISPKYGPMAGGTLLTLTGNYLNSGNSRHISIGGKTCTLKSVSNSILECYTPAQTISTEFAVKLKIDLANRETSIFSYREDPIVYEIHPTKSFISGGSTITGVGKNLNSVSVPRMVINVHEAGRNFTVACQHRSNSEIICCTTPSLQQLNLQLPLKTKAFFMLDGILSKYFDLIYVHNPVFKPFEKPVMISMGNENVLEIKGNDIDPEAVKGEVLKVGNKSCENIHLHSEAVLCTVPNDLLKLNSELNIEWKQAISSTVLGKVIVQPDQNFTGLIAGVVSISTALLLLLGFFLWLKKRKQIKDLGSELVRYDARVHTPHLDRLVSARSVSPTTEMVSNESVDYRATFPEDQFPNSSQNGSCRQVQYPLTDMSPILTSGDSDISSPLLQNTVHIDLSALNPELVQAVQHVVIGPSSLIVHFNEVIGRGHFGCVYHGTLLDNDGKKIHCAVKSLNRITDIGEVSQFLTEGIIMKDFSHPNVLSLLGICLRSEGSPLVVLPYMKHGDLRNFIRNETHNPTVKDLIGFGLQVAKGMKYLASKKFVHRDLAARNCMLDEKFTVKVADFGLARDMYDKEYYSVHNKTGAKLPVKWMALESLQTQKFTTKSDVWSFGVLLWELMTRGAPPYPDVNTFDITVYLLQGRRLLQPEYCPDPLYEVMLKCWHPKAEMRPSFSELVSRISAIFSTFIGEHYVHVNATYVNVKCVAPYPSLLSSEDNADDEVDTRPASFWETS
GSK-3β, (AA 1-420), sequence (P49841 whole entry, the tested form may be a part): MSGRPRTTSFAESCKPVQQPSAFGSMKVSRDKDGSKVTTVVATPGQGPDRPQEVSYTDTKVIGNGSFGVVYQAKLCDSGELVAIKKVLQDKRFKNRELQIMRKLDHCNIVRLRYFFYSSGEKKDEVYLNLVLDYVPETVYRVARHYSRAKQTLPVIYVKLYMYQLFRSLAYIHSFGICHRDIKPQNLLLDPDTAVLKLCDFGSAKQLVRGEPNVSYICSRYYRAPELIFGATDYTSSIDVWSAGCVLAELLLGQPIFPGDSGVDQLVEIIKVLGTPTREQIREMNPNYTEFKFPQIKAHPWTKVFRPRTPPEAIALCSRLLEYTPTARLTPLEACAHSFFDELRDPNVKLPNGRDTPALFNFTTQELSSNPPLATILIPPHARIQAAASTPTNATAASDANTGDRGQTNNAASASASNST

Ki (c-Met)	Ki (GSK-3β, (AA 1-420)) [nM]	Structure (SMILES)
200 to 1000 nM and 1000 to 12500 nM	1000 to 12500	CN1CCN(C(=O)[C@H]2C[C@H]2c2cnc3[nH]cc(-c4oncc4-c4cccc(F)c4F)c3c2)CC1 (relative stereo) [Compound 143, cis-(2-{3-[4-(2,3-Difluoro-phenyl)-isoxazol-5-yl]-1H-pyrrolo[2,3-b]pyridin-5-yl}-cyclopropyl)-(4-methyl-piperazin-1-yl)-methanone]
< 200 nM	1000 to 12500	Clc1cccc(-c2cnoc2-c2c[nH]c3ncccc23)c1Cl [Compound 2, 3-[4-(2,3-Dichloro-phenyl)-isoxazol-5-yl]-1H-pyrrolo[2,3-b]pyridine]
1000 to 12500 nM	200 to 1000	Fc1cccc(Cc2cnoc2-c2c[nH]c3ncccc23)c1F [Compound 36, 3-[4-(2,3-Difluoro-benzyl)-isoxazol-5-yl]-1H-pyrrolo[2,3-b]pyridine]
< 200 nM	1000 to 12500	Fc1ccc(-c2cnoc2-c2c[nH]c3ncccc23)c(F)c1F [Compound 40, 3-[4-(2,3,4-Trifluoro-phenyl)-isoxazol-5-yl]-1H-pyrrolo [2,3-b]pyridine]
1000 to 12500 nM	1000 to 12500	c1cnc2[nH]cc(-c3oncc3C3CCCCC3)c2c1 [Compound 47, 3-(4-Cyclohexyl-isoxazol-5-yl)-1H-pyrrolo[2,3-b]pyridine]
< 200 nM	1000 to 12500	Oc1cnc2[nH]cc(-c3oncc3-c3cccc(Cl)c3Cl)c2c1 [Compound 48, 3-[4-(2,3-Dichloro-phenyl)-isoxazol-5-yl]-1H-pyrrolo[2,3-b]pyridin-5-ol]
< 200 nM	200 to 1000	COc1cnc2[nH]cc(-c3oncc3-c3cccc(Cl)c3Cl)c2c1 [Compound 49, 3-[4-(2,3-Dichloro-phenyl)-isoxazol-5-yl]-5-methoxy-1H-pyrrolo[2,3-b]pyridine]
< 200 nM	200 to 1000	CN(C)CC#Cc1cnc2[nH]cc(-c3oncc3-c3cccc(F)c3F)c2c1 [Compound 53, (3-{3-[4-(2,3-Difluoro-phenyl)-isoxazol-5-yl]-1H-pyrrolo[2,3-b]pyridin-5-yl}-prop-2-ynyl)-dimethyl-amine]
1000 to 12500 nM		CN(C)c1ccnc2[nH]cc(-c3oncc3-c3cccc(F)c3F)c12 [Compound 56, {3-[4-(2,3-Difluoro-phenyl)-isoxazol-5-yl]-1H-pyrrolo[2,3-b]pyridin-4-yl}-dimethyl-amine]
< 200 nM	200 to 1000	Fc1cccc(-c2cnoc2-c2c[nH]c3ncc(-c4ccncc4)cc23)c1F [Compound 57, 3-[4-(2,3-Difluoro-phenyl)-isoxazol-5-yl]-5-pyridin-4-yl-1H-pyrrolo[2,3-b]pyridine]
< 200 nM	200 to 1000	Fc1cccc(-c2cnoc2-c2c[nH]c3ncc(-c4ccccc4)cc23)c1F [Compound 58, 3-[4-(2,3-Difluoro-phenyl)-isoxazol-5-yl]-5-phenyl-1H-pyrrolo[2,3-b]pyridine]
< 200 nM	200 to 1000	Fc1cccc(-c2cnoc2-c2c[nH]c3ncc(-c4cccnc4)cc23)c1F [Compound 59, 3-[4-(2,3-Difluoro-phenyl)-isoxazol-5-yl]-5-pyridin-3-yl-1H-pyrrolo[2,3-b]pyridine]
< 200 nM	200 to 1000	CN1CCC(c2cnc3[nH]cc(-c4oncc4-c4cccc(F)c4F)c3c2)CC1 [Compound 60, 3-[4-(2,3-Difluoro-phenyl)-isoxazol-5-yl]-5-(1-methyl-piperidin-4-yl)-1H-pyrrolo[2,3-b]pyridine]
< 200 nM	200 to 1000	Fc1cccc(-c2cnoc2-c2c[nH]c3ncc(C4CCNCC4)cc23)c1F [Compound 62, 3-[4-(2,3-Difluoro-phenyl)-isoxazol-5-yl]-5-piperidin-4-yl-1H-pyrrolo[2,3-b]pyridine]
< 200 nM	< 200	CC(=O)N1CCC(c2cnc3[nH]cc(-c4oncc4-c4cccc(F)c4F)c3c2)CC1 [Compound 63, 1-(4-{3-[4-(2,3-Difluoro-phenyl)-isoxazol-5-yl]-1H-pyrrolo[2,3-b]pyridin-5-yl}-piperidin-1-yl)-ethanone]
< 200 nM	< 200	N#CCC(=O)N1CCC(c2cnc3[nH]cc(-c4oncc4-c4cccc(F)c4F)c3c2)CC1 [Compound 64, 3-(4-{3-[4-(2,3-Difluoro-phenyl)-isoxazol-5-yl]-1H-pyrrolo[2,3-b]pyridin-5-yl}-piperidin-1-yl)-3-oxo-propionitrile]

Ki (c-Met)	Ki (GSK-3β, (AA 1-420)) [nM]	Structure (SMILES)
< 200 nM	200 to 1000	C=Cc1cnc2[nH]cc(-c3oncc3-c3cccc(F)c3F)c2c1 [Compound 66, 3-[4-(2,3-Difluoro-phenyl)-isoxazol-5-yl]-5-vinyl-1H-pyrrolo[2,3-b]pyridine]
< 200 nM	< 200	Fc1ccc(-c2cnc3[nH]cc(-c4oncc4-c4cccc(F)c4F)c3c2)cn1 [Compound 69, 3-[4-(2,3-Difluoro-phenyl)-isoxazol-5-yl]-5-(6-fluoro-pyridin-3-yl)-1H-pyrrolo[2,3-b]pyridine]
< 200 nM	< 200	CCN1CCC(c2cnc3[nH]cc(-c4oncc4-c4cccc(F)c4F)c3c2)CC1 [Compound 72, 3-[4-(2,3-Difluoro-phenyl)-isoxazol-5-yl]-5-(1-ethyl-piperidin-4-yl)-1H-pyrrolo[2,3-b]pyridine]
< 200 nM		Fc1cccnc1-c1cnc2[nH]cc(-c3oncc3-c3cccc(F)c3F)c2c1 [Compound 74, 3-[4-(2,3-Difluoro-phenyl)-isoxazol-5-yl]-5-(3-fluoro-pyridin-2-yl)-1H-pyrrolo[2,3-b]pyridine]
< 200 nM	1000 to 12500	Fc1cccc(-c2cnoc2-c2c[nH]c3ncc(-c4ncccn4)cc23)c1F [Compound 75, 3-[4-(2,3-Difluoro-phenyl)-isoxazol-5-yl]-5-pyrimidin-2-yl-1H-pyrrolo[2,3-b]pyridine]
< 200 nM	200 to 1000	COc1ccnc(-c2cnc3[nH]cc(-c4oncc4-c4cccc(F)c4F)c3c2)c1 [Compound 78, 3-[4-(2,3-Difluoro-phenyl)-isoxazol-5-yl]-5-(4-methoxy-pyridin-2-yl)-1H-pyrrolo[2,3-b]pyridine]
< 200 nM	200 to 1000	CN(C)C(=O)c1ccc(-c2cnc3[nH]cc(-c4oncc4-c4cccc(F)c4F)c3c2)nc1 [Compound 79, 6-{3-[4-(2,3-Difluoro-phenyl)-isoxazol-5-yl]-1H-pyrrolo [2,3-b]pyridin-5-yl}-N,N-dimethyl-nicotinamide]
1000 to 12500 nM	1000 to 12500	CN(C)c1ccnc(-c2cnc3[nH]cc(-c4oncc4-c4cccc(F)c4F)c3c2)c1 [Compound 80, (2-{3-[4-(2,3-Difluoro-phenyl)-isoxazol-5-yl]-1H-pyrrolo[2,3-b]pyridin-5-yl}-pyridin-4-yl)-dimethyl-amine]
< 200 nM	200 to 1000	CN(C)Cc1cc(Cl)nc(-c2cnc3[nH]cc(-c4oncc4-c4cccc(F)c4F)c3c2)c1 [Compound 81, (2-Chloro-6-{3-[4-(2,3-difluoro-phenyl)-isoxazol-5-yl]-1H-pyrrolo[2,3-b]pyridin-5-yl}-pyridin-4-ylmethyl)-dimethyl-amine]
< 200 nM	200 to 1000	Nc1ccnc(-c2cnc3[nH]cc(-c4oncc4-c4cccc(F)c4F)c3c2)c1 [Compound 83, 2-{3-[4-(2,3-Difluoro-phenyl)-isoxazol-5-yl]-1H-pyrrolo [2,3-b]pyridin-5-yl}-pyridin-4-ylamine]
< 200 nM	1000 to 12500	Fc1cccc(-c2cnoc2-c2c[nH]c3ncc(-c4cncnc4)cc23)c1F [Compound 85, 3-[4-(2,3-Difluoro-phenyl)-isoxazol-5-yl]-5-pyrimidin-5-yl-1H-pyrrolo[2,3-b]pyridine]
< 200 nM	1000 to 12500	Oc1cccc(-c2cnc3[nH]cc(-c4oncc4-c4cccc(F)c4F)c3c2)c1 [Compound 87, 3-{3-[4-(2,3-Difluoro-phenyl)-isoxazol-5-yl]-1H-pyrrolo [2,3-b]pyridin-5-yl}-phenol]
< 200 nM	200 to 1000	Fc1cccc(-c2cnoc2-c2c[nH]c3ncc(-c4ccc(CN5CCOCC5)cc4)cc23)c1F [Compound 92, 3-[4-(2,3-Difluoro-phenyl)-isoxazol-5-yl]-5-(4-morpholin-4-ylmethyl-phenyl)-1H-pyrrolo[2,3-b]pyridine]
200 to 1000 nM		Cn1ccc2c(-c3oncc3-c3cccc(F)c3F)c[nH]c2c1=O [Compound 144, 3-[4-(2,3-Difluoro-phenyl)-isoxazol-5-yl]-6-methyl-1,6-dihydro-pyrrolo[2,3-c]pyridin-7-one]
1000 to 12500 nM		Nc1[nH]c2ncccc2c1-c1oncc1-c1cccc(F)c1F [Compound 152]
